Experimental data as given in patent US20240415878A1, “Compositions and Methods for Modulating Mitochondrial Function” (Board of Regents, The University of Texas System, priority 2021, published 2024).

Tests used:
[1] = target: T1, Mrs2 (Mus musculus, UniProt Q5NCE8); assay: Mrs2 inhibition in intact hepatocytes loaded with Mag-Green-AM, confocal, L-lactate stimulation; assay type: cell-based, murine
T1 construct: endogenous in cells; host or cells: primary murine hepatocytes (C57BL/6J mice)
T1 sequence (Q5NCE8 54-434): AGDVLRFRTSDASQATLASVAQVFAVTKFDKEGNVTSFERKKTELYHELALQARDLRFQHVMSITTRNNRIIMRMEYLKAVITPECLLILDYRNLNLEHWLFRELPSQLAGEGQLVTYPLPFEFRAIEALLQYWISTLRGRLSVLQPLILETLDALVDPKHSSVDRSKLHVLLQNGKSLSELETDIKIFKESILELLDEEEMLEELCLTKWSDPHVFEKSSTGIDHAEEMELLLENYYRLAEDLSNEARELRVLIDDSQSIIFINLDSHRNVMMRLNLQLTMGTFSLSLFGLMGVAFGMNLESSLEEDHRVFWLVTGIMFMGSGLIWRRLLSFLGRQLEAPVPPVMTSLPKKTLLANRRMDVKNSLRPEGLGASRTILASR
Protocol: Bacterial CorA forms a pentameric complex that selectively drives Mg2+ uptake in an electrogenic manner. […] Mrs2 is the eukaryotic homologue of CorA and contains two transmembrane domains with a well-conserved F/Y-G-M-N motif; therefore, CorA blockers were tested to determine if they alter Mrs2-mediated mMg^2+ uptake (Moomaw and Maguire, 2008). Digitonin permeabilized hepatocytes were utilized to measure the inhibitory effect and determine its IC50. Permeabilized cells were treated with CPACC followed by a 1 mM bolus of MgCl2 (FIG. 10B). A 1 mM Mg^2+ bolus was added after baseline recording, and the extramitochondrial Mg^2+ clearance was used as a read-out for Mrs2-mediated mMg^2+ uptake using Mag-Green as a Mg^2+ indicator. […] We next investigated Mrs2 inhibition in intact hepatocytes loaded with Mag-Green-AM. […] Next CPACC was examined to determine if it had any effect on MCU-mediated mCa^2+ uptake in permeabilized cells. […] The availability of the compound to intact cells was measured using graphite furnace atomic absorption spectroscopy (GFAAS) and bicinchoninic acid in parallel. […] Encouraged by the potent inhibitory effect of CPACC and cellular permeability, we next measured the cytotoxicity of CPACC in cells. […]
Evaluation of dose dependent Mrs2 inhibition by confocal live cell imaging system. […] Data was quantified using Leica Application Suite X.

[2] = target: T1, Mrs2; assay: Mrs2-mediated mMg2+ uptake in digitonin permeabilized hepatocytes (Mag-Green, extramitochondrial Mg2+ clearance); assay type: cell-based, murine; conditions: permeabilized cell system
Protocol: Bacterial CorA forms a pentameric complex that selectively drives Mg2+ uptake in an electrogenic manner. […] Mrs2 is the eukaryotic homologue of CorA and contains two transmembrane domains with a well-conserved F/Y-G-M-N motif; therefore, CorA blockers were tested to determine if they alter Mrs2-mediated mMg^2+ uptake (Moomaw and Maguire, 2008). Digitonin permeabilized hepatocytes were utilized to measure the inhibitory effect and determine its IC50. Permeabilized cells were treated with CPACC followed by a 1 mM bolus of MgCl2 (FIG. 10B). A 1 mM Mg^2+ bolus was added after baseline recording, and the extramitochondrial Mg^2+ clearance was used as a read-out for Mrs2-mediated mMg^2+ uptake using Mag-Green as a Mg^2+ indicator. […] We next investigated Mrs2 inhibition in intact hepatocytes loaded with Mag-Green-AM. […] Next CPACC was examined to determine if it had any effect on MCU-mediated mCa^2+ uptake in permeabilized cells. […] The availability of the compound to intact cells was measured using graphite furnace atomic absorption spectroscopy (GFAAS) and bicinchoninic acid in parallel.
Spectrofluorimetric measurement of mitochondrial Mg^2+ and Ca^2+ dynamics and citrate mediated MagGreen fluorescence quenching. Fluorescence measurements were conducted in a multiwavelength excitation dual wavelength emission spectrofluorometer (Delta RAM, PTI, HORIBA). […]

N.N.N.N.N.N.[Cl-].[Cl-].[Cl-].[Co+3] [cobalt(III)hexaammine, Hexaamminecobalt (III) chloride, reference compound]
effect on Mrs2 in intact hepatocytes [1]: absent
inhibitory effect on Mrs2 activity [2]: limited inhibition
